{
  "source": "patent US11135202B2",
  "about": "“Thiazolide compounds for treating viral infections” (Romark Laboratories L.C., priority 2016, dated 2021)",
  "key": {"RSV-A2": {"test_system": "RSV-A2", "experiment": "RSV-A2 yield in infected HeLa cells (virus-induced syncytia counted by immunofluorescence)", "assay_type": "cell-based"}, "[1]": {"test_system": "respiratory syncytial virus", "experiment": "Study RM08-3002 clinical trial, time to alleviation of symptoms, RSV patients", "conditions": "human, in vivo"}, "Sendai virus (SeV) [2]": {"test_system": "Sendai virus (SeV)", "assay_type": "cell-based"}, "Sendai virus (SeV) [3]": {"test_system": "Sendai virus (SeV)", "experiment": "SeV virus yield in AGMK cells (HA titration, plaque assay; MTT viability; cytopathic effect)", "assay_type": "cell-based"}},
  "data": [
    {"molecule": "CC(=O)Oc1ccccc1C(=O)Nc1ncc([N+](=O)[O-])s1", "note": "[nitazoxanide]", "values": [
      {"measurement": "IC50", "setting": "RSV-A2; human respiratory syncytial virus, HeLa cells, MOI 1 TCID50/cell, syncytia at 48 hours p.i., non cytotoxic doses, read-out: IC50, antiviral activity against RSV-A2", "result": 0.3, "unit": "µg/mL"},
      {"measurement": "IC90", "setting": "RSV-A2; human respiratory syncytial virus, HeLa cells, MOI 1 TCID50/cell, syncytia at 48 hours p.i., non cytotoxic doses, read-out: IC90, antiviral activity against RSV-A2", "result": 0.8, "unit": "µg/mL"},
      {"measurement": "effect of treatment against RSV", "setting": "RSV-A2; in vitro", "result": "effective against RSV"},
      {"measurement": "reduction in duration of symptoms at the median vs placebo", "setting": "[1]", "result": 76, "unit": "h"},
      {"measurement": "inhibition of SeV in A549 cells", "setting": "Sendai virus (SeV) [2]", "result": "also effective"},
      {"measurement": "protection of infected cells from virus-induced damage", "setting": "Sendai virus (SeV) [3]; SeV 3 PFU/cell, 10 μg/ml, 24 h p.i.", "result": "cytoprotective"},
      {"measurement": "inhibition of SeV replication", "setting": "Sendai virus (SeV) [3]; at concentrations non-toxic for the host cells", "result": "effective"}
    ]}
  ]
}
